Measured values taken from patent US11253517B2, “Small molecule regulators of steroid receptor coactivators and methods of use thereof” (BAYLOR COLLEGE OF MEDICINE, priority 2016, dated 2022).

What was measured:
Assay type in all cases: cell-based
[1] = target: T1, SRC-3 (Homo sapiens, UniProt Q9Y6Q9); test: SRC-3 intrinsic transcriptional activity luciferase assay in HeLa cells; conditions: pG5-LUC reporter with pBIND-SRC-3, 24 hours
T1 construct: expressed in transfected cells; host or cells: HeLa
Description: Luciferase assays were performed in HeLa cells transiently transfected with the reporter vector pG5-LUC in combination with expression vectors for pBIND and pBIND-SRC-3 before incubation with the compound for 24 hours. In FIG. 1, the first histogram bar in each set represents pBIND; the second histogram bar in each set represents SRC-1; the third histogram bar in each set represents SRC-2; and the fourth histogram bar in each set represents SRC-3.
Intrinsic transcriptional activity assays were conducted as for FIG. 1. In FIG. 2, the left histogram bar in each set represents pBIND and the right histogram bar in each set represents pBIND-SRC3.
The effects of the SI compounds described herein on the intrinsic transcriptional activities of SRC-1, SRC-2 and SRC-3 were investigated. HeLa cells were transiently transfected with a pGL5-LUC reporter and expression vectors for pBIND and pBIND-SRC-1, pBIND-SRC-2, pBIND-SRC-3, followed by 24 hours of treatment with different concentrations of SI compounds. Compounds as described herein, including SI-9, SI-10, SI-11, SI-12, SI-14, SI-15, SI-16, SI-17, SI-19, SI-20, and SI-21, were tested for their ability to inhibit the intrinsic transcriptional activity of SRC-1, SRC-2 and SRC-3 in FIG. 1.

[2] = test system: MDA-MB-468 cells; test: IC50 in MDA-MB-468 cells, 72 hours incubation; conditions: Homo sapiens
Description: (§1) The compounds described herein were synthesized as described in Example 1. The IC50 values were measured in MDA-MB-468, BT-474, and MCF-7 cells by incubating a series of concentrations of the corresponding compounds for 72 hours.
(§2) In Tables 1 and 2, “−” represents IC50 or EC50 values greater than 10 μM; “+” represents IC50 or EC50 values from greater than 1 μM to 10 μM; “++” represents IC50 or EC50 values from 0.1 μM to 1 μM; and “+++” represents IC50 or EC50 values less than 0.1 μM.

[3] = test system: BT-474 cells; test: IC50 in BT-474 cells, 72 hours incubation; conditions: Homo sapiens
Description: as §1, §2

[4] = test system: MCF-7 cells; test: IC50 in MCF-7 cells, 72 hours incubation; conditions: Homo sapiens, MCF7
Description: as §1, §2

[5] = test system: MDA-MB-468 cells; test: EC50 in MDA-MB-468 cells, 72 hours incubation; conditions: Homo sapiens
Description: The EC50 values of certain compounds were measured in MDA-MB-468 cells by incubating a series of concentrations of the corresponding compounds for 72 hours.
as §2

T1 sequence (Q9Y6Q9 whole entry): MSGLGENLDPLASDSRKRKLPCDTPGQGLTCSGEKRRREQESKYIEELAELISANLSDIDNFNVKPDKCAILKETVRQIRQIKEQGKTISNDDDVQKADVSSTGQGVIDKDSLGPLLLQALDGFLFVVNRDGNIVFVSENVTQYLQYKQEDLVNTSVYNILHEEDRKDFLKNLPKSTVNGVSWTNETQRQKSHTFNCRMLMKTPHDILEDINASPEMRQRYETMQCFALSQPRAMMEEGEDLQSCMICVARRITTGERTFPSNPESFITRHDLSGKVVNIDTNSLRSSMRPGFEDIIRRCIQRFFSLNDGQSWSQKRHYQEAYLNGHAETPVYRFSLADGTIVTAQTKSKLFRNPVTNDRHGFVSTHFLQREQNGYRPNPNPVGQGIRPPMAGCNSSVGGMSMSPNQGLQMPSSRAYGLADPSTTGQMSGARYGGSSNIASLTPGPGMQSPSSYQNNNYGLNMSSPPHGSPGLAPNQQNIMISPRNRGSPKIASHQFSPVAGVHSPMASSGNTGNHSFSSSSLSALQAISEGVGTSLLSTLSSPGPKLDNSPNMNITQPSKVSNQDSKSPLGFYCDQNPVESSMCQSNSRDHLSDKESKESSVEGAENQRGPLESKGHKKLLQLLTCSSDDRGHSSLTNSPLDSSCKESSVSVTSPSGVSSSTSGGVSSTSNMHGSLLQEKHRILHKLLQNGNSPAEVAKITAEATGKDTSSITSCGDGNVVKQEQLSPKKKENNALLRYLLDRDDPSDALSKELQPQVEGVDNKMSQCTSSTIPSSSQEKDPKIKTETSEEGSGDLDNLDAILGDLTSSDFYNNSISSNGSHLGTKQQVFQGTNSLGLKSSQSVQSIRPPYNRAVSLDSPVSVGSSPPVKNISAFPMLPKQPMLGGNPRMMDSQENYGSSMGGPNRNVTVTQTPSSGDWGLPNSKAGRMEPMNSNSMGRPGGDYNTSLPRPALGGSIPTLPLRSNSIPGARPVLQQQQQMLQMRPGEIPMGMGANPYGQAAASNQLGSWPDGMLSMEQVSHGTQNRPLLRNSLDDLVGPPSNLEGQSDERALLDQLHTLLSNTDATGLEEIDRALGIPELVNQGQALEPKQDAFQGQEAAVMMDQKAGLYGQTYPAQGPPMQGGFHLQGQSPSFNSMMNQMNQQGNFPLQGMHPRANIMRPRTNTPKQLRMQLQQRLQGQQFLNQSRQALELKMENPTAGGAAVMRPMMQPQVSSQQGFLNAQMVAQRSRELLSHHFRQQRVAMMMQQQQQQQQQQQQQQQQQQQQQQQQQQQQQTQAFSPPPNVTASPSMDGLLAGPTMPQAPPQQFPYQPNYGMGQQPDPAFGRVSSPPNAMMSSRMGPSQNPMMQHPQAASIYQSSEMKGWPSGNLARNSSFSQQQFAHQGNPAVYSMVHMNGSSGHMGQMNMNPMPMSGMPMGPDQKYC

IC50 [3] [µM]	IC50 [4] [µM]	SMILES	effect on SRC-3 intrinsic activity [1]	other results
–	–	C/C(=N\Nc1nc2ccccc2n1C)c1ccc[nH]1 [SI-3]	able to stimulate SRC-3 intrinsic activity at certain doses	–
–	–	C/C(=N\Nc1nc2ccccc2n1C)c1nccn1C [SI-4]	able to stimulate SRC-3 intrinsic activity at certain doses	–
–	–	C/C(=N\Nc1nc2ccccc2n1C)c1ncco1 [SI-5]	able to stimulate SRC-3 intrinsic activity at certain doses	–
–	–	C/C(=N\Nc1nc2ccccc2n1C)c1nccs1 [SI-6]	able to stimulate SRC-3 intrinsic activity at certain doses	IC50 [2]: 0.1 to 1 µM
–	–	C/C(=N\Nc1nc2ccccc2n1C)c1ccco1 [SI-7]	able to stimulate SRC-3 intrinsic activity at certain doses	–
–	–	C/C(=N\Nc1nc2ccccc2n1C)c1cccs1 [SI-8]	able to stimulate SRC-3 intrinsic activity at certain doses	–
< 0.1	–	C/C(=N\Nc1nc2cc(F)c(F)cc2n1C)c1ccccn1 [SI-9]	–	–
< 0.1	< 0.1	C/C(=N\Nc1nc2cc(F)c(F)cc2n1C)c1ncccn1 [SI-10]	–	–
< 0.1	< 0.1	C/C(=N\Nc1nc2cc(F)c(F)cc2n1C)c1ccncn1 [SI-11]	–	–
< 0.1	< 0.1	C/C(=N\Nc1nc2cc(F)ccc2n1C)c1ccccn1 [SI-14]	–	–
< 0.1	< 0.1	C/C(=N\Nc1nc2cc(F)ccc2n1C)c1ncccn1 [SI-15]	–	–
< 0.1	< 0.1	C/C(=N\Nc1nc2cc(F)ccc2n1C)c1ccncn1 [SI-16]	–	–
< 0.1	< 0.1	C/C(=N\Nc1nc2cc(F)ccc2n1C)c1ccc(F)cn1 [SI-17]	–	–
< 0.1	< 0.1	C/C(=N\Nc1nc2ccccc2n1C)c1ncccn1 [SI-19]	–	–
< 0.1	< 0.1	C/C(=N\Nc1nc2ccccc2n1C)c1ccncn1 [SI-20]	–	–
< 0.1	< 0.1	C/C(=N\Nc1nc2ccccc2n1C)c1ccc(F)cn1 [SI-21]	–	–
–	–	Cn1c(NNC(=O)c2ccccn2)nc2ccccc21 [SI-C-01]	–	EC50 [5]: 0.1 to 1 µM
–	–	C/C(=N\Nc1nc2ccccc2n1C)c1ncccc1Br [SI-E-01P]	–	EC50 [5]: 0.1 to 1 µM
